# In US9833497B2, “Human originated EGF domain proteins and use of the same” (CHENGDU SOURCEBIO LIMITED-LIABILITY COMPANY, priority 2013, dated 2017):
# What was measured:
# Assay type in all cases: cell-based
# [1] = system: Aeromonas hydrophila; assay: MIC against Gram-negative bacteria: Aeromonas hydrophila; conditions: for MIC against A. hydrophila: Aeromonas hydrophila; for MIC (μg/mL) A. hydrophila / MIC: A. hydrophila
# In short: (§1)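 First, colonies from LB agar were grown in LB at 37° C, 185 rpm, to McFarland turbidity 0.5, then centrifuged and resuspended in fresh LB. Next, wells received 5×10^5 CFU/mL bacteria plus two-fold serially diluted EGF domain protein (triplicate). Finally, plates were shaken at 37° C and the no-growth concentration taken as MIC.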
# [2] = system: Proteus mirabilis; assay: MIC against Gram-negative bacteria: Proteus mirabilis; conditions: for MIC against P. mirabilis: Proteus mirabilis; for MIC (μg/mL) P. mirabilis / MIC: P. mirabilis
# In short: as §1
# [3] = system: Proteus vulgaris; assay: MIC against Gram-negative bacteria: Proteus vulgaris; conditions: for MIC against P. vulgaris: Proteus vulgaris; for MIC (μg/mL) P. vulgaris / MIC: P. vulgaris
# In short: as §1
# [4] = system: Serratia marcescens; assay: MIC against Gram-negative bacteria: Serratia marcescens; conditions: for MIC against S. marcescens: Serratia marcescens; for MIC (μg/mL) S. marcescens / MIC: S. marcescens
# In short: as §1
# [5] = system: Pseudomonas aeruginosa; assay: MIC against Gram-negative bacteria: Pseudomonas aeruginosa; conditions: for MIC against P. aeruginosa: Pseudomonas aeruginosa; for MIC (μg/mL) P. aeruginosa / MIC: P. aeruginosa
# In short: as §1
# [6] = system: E. coli BL21; assay: MIC against Gram-negative bacteria: E. coli BL21; conditions: for MIC against E. coli BL21 / MIC (μg/mL) E. coli BL21 / MIC: E. coli BL21
# In short: as §1
# [7] = system: Citrobacter diversus; assay: MIC against Gram-negative bacteria: Citrobacter diversus; conditions: for MIC against C. diversus: Citrobacter diversus; for MIC (μg/mL) C. diversus / MIC: C. diversus
# In short: as §1
# [8] = system: E. coli DH5α; assay: Antibacterial activity: MIC and growth curve against E. coli DH5α in 96-well plate; conditions: minimal inhibitory concentration against E. coli DH5α; 96-well plate, 5×10^5 CFU/mL, 37° C., judged after 8 h
# In short: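 MIC taken as lowest protein level with no bacterial growth, tracked by A600 every 30 min during 37 °C, 175 rpm culture. Two-fold protein series 50-12.5 μg/mL final, triplicate wells, against 5×10^5 CFU/mL of LB-washed mid-log cells.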
# [9] = system: Enterobacter cloacae; assay: MIC against Gram-negative bacteria: Enterobacter cloacae; conditions: for MIC against E. cloacae: Enterobacter cloacae; for MIC (μg/mL) E. cloacae / MIC: E. cloacae
# In short: as §1
# [10] = system: Klebsiella pneumonia; assay: MIC against Gram-negative bacteria: Klebsiella pneumonia; conditions: for MIC against K. pneumonia: Klebsiella pneumonia; for MIC (μg/mL) K. pneumonia / MIC: K. pneumonia
# In short: as §1
# [11] = system: Moraxella catarrhalis; assay: MIC against Gram-negative bacteria: Moraxella catarrhalis; conditions: for MIC against M. catarrhalis: Moraxella catarrhalis; for MIC (μg/mL) M. catarrhalis / MIC: M. catarrhalis
# In short: as §1
# [12] = 96-well plate, 5×10^5 CFU/mL, 37° C., 10 h
# [13] = 10 h cultivation at 37° C., 5×10^5 CFU/mL
# [14] = 5×10^5 CFU/mL, 10 h cultivation at 37° C.
substance,measurement,setting,value
PRT1298 (PINTCIQNPCQHGGTCHLSDSHKDGFSCSCPLGFEGQRCE; listed as Homo sapiens),MIC against A. hydrophila,[1]; [12],12.5 µg/mL
same,MIC against P. mirabilis,[2]; [12],50 µg/mL
same,MIC against P. vulgaris,[3]; [12],12.5 µg/mL
same,MIC against S. marcescens,[4]; [12],25 µg/mL
same,MIC against P. aeruginosa,[5]; [12],12.5 µg/mL
same,MIC against E. coli BL21,[6]; [12],50 µg/mL
same,MIC against C. diversus,[7]; [12],50 µg/mL
same,MIC,[8],12.5 µg/mL
same,MIC against E. cloacae,[9]; [12],25 µg/mL
same,MIC against K. pneumonia,[10]; [12],50 µg/mL
same,MIC against M. catarrhalis,[11]; [12],12.5 µg/mL
PRT247 (GAAICQPPCRNGGSCVQPGRCRCPAGWRGDTCQ; listed as Homo sapiens),MIC (μg/mL) A. hydrophila,[1]; [13],12.5 µg/mL
same,MIC (μg/mL) P. mirabilis,[2]; [13],25 µg/mL
same,MIC (μg/mL) P. vulgaris,[3]; [13],12.5 µg/mL
same,MIC (μg/mL) S. marcescens,[4]; [13],25 µg/mL
same,MIC (μg/mL) P. aeruginosa,[5]; [13],12.5 µg/mL
same,MIC (μg/mL) E. coli BL21,[6]; [13],12.5 µg/mL
same,MIC (μg/mL) C. diversus,[7]; [13],25 µg/mL
same,MIC,[8],12.5 µg/mL
same,MIC (μg/mL) E. cloacae,[9]; [13],25 µg/mL
same,MIC (μg/mL) K. pneumonia,[10]; [13],12.5 µg/mL
same,MIC (μg/mL) M. catarrhalis,[11]; [13],100 µg/mL
PRT693 (SSGMCQRNPQVCGPGRCISRPSGYTCACDSGFRLSPQGTRCI; listed as Homo sapiens),MIC A. hydrophila,[1]; [12],25 µg/mL
same,MIC P. mirabilis,[2]; [12],25 µg/mL
same,MIC P. vulgaris,[3]; [12],50 µg/mL
same,MIC S. marcescens,[4]; [12],50 µg/mL
same,MIC P. aeruginosa,[5]; [12],50 µg/mL
same,MIC E. coli BL21,[6]; [12],12.5 µg/mL
same,MIC C. diversus,[7]; [12],50 µg/mL
same,MIC,[8],25 µg/mL
same,MIC E. cloacae,[9]; [12],12.5 µg/mL
same,MIC K. pneumonia,[10]; [12],25 µg/mL
same,MIC M. catarrhalis,[11]; [12],12.5 µg/mL
PRT1456 (DYDECERKEDDCVPGTSCRNTLGSFTCSCEGGAPDFPVEYSE; listed as Homo sapiens),MIC against A. hydrophila,[1]; [14],12.5 µg/mL
same,MIC against P. mirabilis,[2]; [14],12.5 µg/mL
same,MIC against P. vulgaris,[3]; [14],12.5 µg/mL
same,MIC against S. marcescens,[4]; [14],12.5 µg/mL
same,MIC against P. aeruginosa,[5]; [14],12.5 µg/mL
same,MIC against E. coli BL21,[6]; [14],25 µg/mL
same,MIC against C. diversus,[7]; [14],25 µg/mL
same,MIC,[8],12.5 µg/mL
same,MIC against E. cloacae,[9]; [14],25 µg/mL
same,MIC against K. pneumonia,[10]; [14],50 µg/mL
same,MIC against M. catarrhalis,[11]; [14],50 µg/mL
PRT818 (DCRSACNCTAGAACDAVNGSCLCPAGRRGPRCA; listed as Homo sapiens),MIC (μg/mL) A. hydrophila,[1]; [13],25 µg/mL
same,MIC (μg/mL) P. mirabilis,[2]; [13],25 µg/mL
same,MIC (μg/mL) P. vulgaris,[3]; [13],12.5 µg/mL
same,MIC (μg/mL) S. marcescens,[4]; [13],12.5 µg/mL
same,MIC (μg/mL) P. aeruginosa,[5]; [13],25 µg/mL
same,MIC (μg/mL) E. coli BL21,[6]; [13],50 µg/mL
same,MIC (μg/mL) C. diversus,[7]; [13],12.5 µg/mL
same,MIC,[8],25 µg/mL
same,MIC (μg/mL) E. cloacae,[9]; [13],12.5 µg/mL
same,MIC (μg/mL) K. pneumonia,[10]; [13],12.5 µg/mL
same,MIC (μg/mL) M. catarrhalis,[11]; [13],25 µg/mL
PRT906 (LVHWCDSSPCKNGGKCWQTHTQYRCECPSGWTGLYCD; listed as Homo sapiens),MIC,[1]; 10 h cultivation at 37° C.,12.5 µg/mL
same,MIC,[2]; 10 h cultivation at 37° C.,25 µg/mL
same,MIC,[3]; 10 h cultivation at 37° C.,12.5 µg/mL
same,MIC,[4]; 10 h cultivation at 37° C.,25 µg/mL
same,MIC,[5]; 10 h cultivation at 37° C.,12.5 µg/mL
same,MIC,[6]; 10 h cultivation at 37° C.,25 µg/mL
same,MIC,[7]; 10 h cultivation at 37° C.,25 µg/mL
same,MIC,[8],50 µg/mL
same,MIC,[9]; 10 h cultivation at 37° C.,50 µg/mL
same,MIC,[10]; 10 h cultivation at 37° C.,25 µg/mL
same,MIC,[11]; 10 h cultivation at 37° C.,50 µg/mL
PRT399 (DVDECRMLAHLCAHGECINSLGSFRCHCQAGYTPDATATTCL; listed as Homo sapiens),MIC,[1]; [13],50 µg/mL
same,MIC,[2]; [13],12.5 µg/mL
same,MIC,[3]; [13],50 µg/mL
same,MIC,[4]; [13],12.5 µg/mL
same,MIC,[5]; [13],12.5 µg/mL
same,MIC,[6]; [13],50 µg/mL
same,MIC,[7]; [13],12.5 µg/mL
same,MIC,[8],12.5 µg/mL
same,MIC,[9]; [13],12.5 µg/mL
same,MIC,[10]; [13],50 µg/mL
same,MIC,[11]; [13],50 µg/mL
